Measured values from ChEMBL document CHEMBL1201862, “PubChem BioAssay data set” (2004).
Activity calls are given as the source filed them. Cut-off read from the data, not from the text of the source, for most assays here: actives have a measured EC50 and inactives only a lower limit.

How the values were obtained:
[1] = inhibitors of SNCA 5'UTR-driven reporter translation, confirmation, H4 neuroglioma cells, luminescence (AID 1988); assay type: functional, cell-based
[2] = Luminescence Cell-Based Dose Response HTS to Identify Inhibitors of 5'UTR Stem-Loop Driven Prion Protein mRNA Translation in H4 Neuroglioblastoma Cells. [Related pubchem assays: 1827 (Project Summary), 1813 (Primary HTS)]; assay type: functional
[3] = inhibitors of firefly luciferase expression or activity, dose response, H4 neuroglioma cells, luminescence (AID 1990); assay type: functional, cell-based
[4] = cytotoxicity in HEK-293T cells, dose response, cytotoxicity control for BCR NF-kB inhibitor project, luminescence, B-cell screen hits (AID 489021); assay type: functional, cell-based;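 note: HEK-293T cells carrying an NF-kB luciferase reporter; cells exposed to compound for about 14 hours before viability readout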
H4 = experiment: Luminescence Cell-Based Dose Response HTS to Identify Activators of 5'UTR Stem-Loop Driven Prion Protein mRNA Translation in H4 Neuroglioblastoma Cells. [Related pubchem assays: 1829 (Project Summary), 1814 (Primary HTS)]; assay type: functional; settings: Homo sapiens
[5] = biological target: T1, Heat shock factor protein 1 (Mus musculus, UniProt P38532); experiment: inhibition of MG132-induced HSE-luciferase signal, confirmation, cell-based, NIH3T3, luminescence, dose retest (AID 2382); assay type: functional;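 note: NIH3T3 fibroblasts with HSF1-driven luciferase reporter stressed by proteasome inhibitor MG132; luminescence from HSF1-driven luciferase expression after 8 hours of MG132 stress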
T1 sequence (P38532 whole entry): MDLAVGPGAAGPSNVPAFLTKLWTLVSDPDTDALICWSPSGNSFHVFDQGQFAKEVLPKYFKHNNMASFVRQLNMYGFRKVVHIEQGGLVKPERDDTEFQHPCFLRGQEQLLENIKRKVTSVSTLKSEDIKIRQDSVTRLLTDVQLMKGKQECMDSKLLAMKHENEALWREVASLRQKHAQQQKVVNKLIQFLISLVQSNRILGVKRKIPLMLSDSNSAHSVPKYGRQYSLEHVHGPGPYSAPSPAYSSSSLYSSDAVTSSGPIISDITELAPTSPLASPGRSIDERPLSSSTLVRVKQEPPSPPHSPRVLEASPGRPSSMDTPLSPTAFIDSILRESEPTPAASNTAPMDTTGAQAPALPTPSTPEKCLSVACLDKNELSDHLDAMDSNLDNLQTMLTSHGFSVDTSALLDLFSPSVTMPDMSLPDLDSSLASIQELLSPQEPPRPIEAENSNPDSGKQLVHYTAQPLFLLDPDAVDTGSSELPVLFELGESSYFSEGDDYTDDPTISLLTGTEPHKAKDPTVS

Protein skinhead-1 = biological target: T2, Protein skinhead-1 (Caenorhabditis elegans, UniProt P34707); assay type: functional
T2 sequence (P34707 whole entry): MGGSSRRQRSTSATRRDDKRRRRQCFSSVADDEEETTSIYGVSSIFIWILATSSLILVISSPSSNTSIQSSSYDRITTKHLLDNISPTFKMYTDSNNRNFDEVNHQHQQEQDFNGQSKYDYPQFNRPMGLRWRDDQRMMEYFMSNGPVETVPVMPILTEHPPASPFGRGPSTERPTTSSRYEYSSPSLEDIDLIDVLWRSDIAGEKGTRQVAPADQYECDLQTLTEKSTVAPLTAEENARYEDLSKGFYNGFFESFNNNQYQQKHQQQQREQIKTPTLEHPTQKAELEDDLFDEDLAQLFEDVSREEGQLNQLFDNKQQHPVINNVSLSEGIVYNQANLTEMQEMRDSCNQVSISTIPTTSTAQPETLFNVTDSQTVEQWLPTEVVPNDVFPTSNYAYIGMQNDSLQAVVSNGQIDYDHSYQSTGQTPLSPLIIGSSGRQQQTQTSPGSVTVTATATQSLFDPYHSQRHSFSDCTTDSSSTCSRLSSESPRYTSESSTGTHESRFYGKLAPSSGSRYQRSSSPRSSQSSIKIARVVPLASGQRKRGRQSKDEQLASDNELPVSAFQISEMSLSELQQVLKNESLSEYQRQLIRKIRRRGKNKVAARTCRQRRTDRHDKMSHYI

[6] = Luminescence Cell-Based Dose Response HTS to Identify Activators of Luciferase Translation or Activity in H4 […] Cells. [Related pubchem assays: 1829 (Project Summary), 1814 (Primary HTS)]; assay type: functional
[7] = Luminescence Cell-Based Dose Confirmation HTS to Identify Activators of 5'UTR Stem-Loop Driven Alpha-Synuclein mRNA Translation in H4 Neuroglioblastoma Cells. [Related pubchem assays: 1829 (Project Summary), 1814 (Primary HTS)]; assay type: functional
Aminopeptidase N = biological target: T3, Aminopeptidase N (Plasmodium falciparum FcB1/Columbia, UniProt O96935); experiment: P. falciparum M1AAP inhibitors, biochemical, fluorogenic H-Leu-NHMec substrate, 1536-well (AID 1445); set-up: species or system Plasmodium falciparum 3D7, 3D7
T3 sequence (O96935 whole entry): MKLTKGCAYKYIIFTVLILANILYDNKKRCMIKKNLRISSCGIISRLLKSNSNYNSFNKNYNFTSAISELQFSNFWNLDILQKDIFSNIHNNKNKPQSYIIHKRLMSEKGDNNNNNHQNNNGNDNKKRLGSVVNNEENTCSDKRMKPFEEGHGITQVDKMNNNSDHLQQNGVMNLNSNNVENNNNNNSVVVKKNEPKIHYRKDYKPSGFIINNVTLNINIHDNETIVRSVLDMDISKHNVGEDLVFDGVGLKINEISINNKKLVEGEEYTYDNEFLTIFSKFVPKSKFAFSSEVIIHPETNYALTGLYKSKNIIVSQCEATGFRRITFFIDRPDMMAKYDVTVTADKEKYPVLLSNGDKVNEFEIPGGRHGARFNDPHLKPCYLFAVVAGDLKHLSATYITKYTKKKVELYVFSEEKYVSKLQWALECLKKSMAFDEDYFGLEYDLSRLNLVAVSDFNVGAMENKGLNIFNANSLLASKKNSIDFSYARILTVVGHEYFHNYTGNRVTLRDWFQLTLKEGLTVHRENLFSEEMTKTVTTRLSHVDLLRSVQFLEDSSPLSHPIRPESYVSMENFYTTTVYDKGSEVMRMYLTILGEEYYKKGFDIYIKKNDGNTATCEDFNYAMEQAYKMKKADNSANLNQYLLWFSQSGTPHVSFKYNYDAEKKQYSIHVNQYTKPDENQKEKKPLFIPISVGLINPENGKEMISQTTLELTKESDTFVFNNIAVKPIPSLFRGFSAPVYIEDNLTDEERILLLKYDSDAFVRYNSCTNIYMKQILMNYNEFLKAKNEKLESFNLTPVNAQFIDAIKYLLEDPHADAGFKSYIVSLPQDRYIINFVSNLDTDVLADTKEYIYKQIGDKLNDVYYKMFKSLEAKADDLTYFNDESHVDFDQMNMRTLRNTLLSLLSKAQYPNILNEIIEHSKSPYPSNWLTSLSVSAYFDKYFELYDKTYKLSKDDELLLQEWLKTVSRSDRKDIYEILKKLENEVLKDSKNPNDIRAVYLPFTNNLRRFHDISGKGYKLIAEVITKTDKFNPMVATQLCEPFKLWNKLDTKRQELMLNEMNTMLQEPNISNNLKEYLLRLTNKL

HEK293 [8] = experiment: NOD1 signaling inhibitors, primary screen, cell-based, luminescence, uHTS (AID 1578); assay type: functional; settings: Homo sapiens
HEK293 [9] = experiment: cells; assay type: functional, cell-based; settings: Homo sapiens
HEK293 [10] = experiment: cells; assay type: functional, cell-based; settings: Homo sapiens; remark: listed apart in the source
HEK293 [11] = experiment: NOD2 signaling inhibitors in MDP-stimulated cells, cell-based, uHTS, luminescence (AID 2001); assay type: functional; settings: Homo sapiens
HEK293 [12] = experiment: inhibitors of LMP1-driven NF-kB reporter, dose response, cell-based, HEK293, luciferase, cherry-pick (AID 588343); assay type: functional, Homo sapiens; settings: hek293
[13] = inhibitors of intracellular T. cruzi replication, confirmation, NIH3T3 host cells, beta-gal luminescence (AID 2044); assay type: functional, cell-based;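 note: intracellular parasites grown in NIH/3T3 mouse fibroblasts as host cells; luminescent beta-galactosidase reporter signal from transgenic T. cruzi replicating inside host cells; inhibitors lower the luminescence signal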
[14] = cytotoxicity toward NIH3T3 fibroblasts, dose response, counter-screen, cell-based, ATP luminescence, mouse fibroblasts (AID 2010); assay type: functional;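 note: cells exposed to compound for about 90 hours before reading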
HT-1080 = experiment: cytotoxicity in HT1080 fibrosarcoma cells, cell-based, fluorescence readout (AID 620); assay type: functional; settings: Homo sapiens
[15] = biological target: Luciferin 4-monooxygenase (Photinus pyralis, UniProt P08659); experiment: Counter Screen for Luciferase-based Assay Positives. [Related pubchem assays: 620, 618, 411 ]
[16] = biological target: T4, Histone-lysine N-methyltransferase NSD2 (Homo sapiens, UniProt O96028); assay type: biochemical
T4 sequence (O96028 whole entry): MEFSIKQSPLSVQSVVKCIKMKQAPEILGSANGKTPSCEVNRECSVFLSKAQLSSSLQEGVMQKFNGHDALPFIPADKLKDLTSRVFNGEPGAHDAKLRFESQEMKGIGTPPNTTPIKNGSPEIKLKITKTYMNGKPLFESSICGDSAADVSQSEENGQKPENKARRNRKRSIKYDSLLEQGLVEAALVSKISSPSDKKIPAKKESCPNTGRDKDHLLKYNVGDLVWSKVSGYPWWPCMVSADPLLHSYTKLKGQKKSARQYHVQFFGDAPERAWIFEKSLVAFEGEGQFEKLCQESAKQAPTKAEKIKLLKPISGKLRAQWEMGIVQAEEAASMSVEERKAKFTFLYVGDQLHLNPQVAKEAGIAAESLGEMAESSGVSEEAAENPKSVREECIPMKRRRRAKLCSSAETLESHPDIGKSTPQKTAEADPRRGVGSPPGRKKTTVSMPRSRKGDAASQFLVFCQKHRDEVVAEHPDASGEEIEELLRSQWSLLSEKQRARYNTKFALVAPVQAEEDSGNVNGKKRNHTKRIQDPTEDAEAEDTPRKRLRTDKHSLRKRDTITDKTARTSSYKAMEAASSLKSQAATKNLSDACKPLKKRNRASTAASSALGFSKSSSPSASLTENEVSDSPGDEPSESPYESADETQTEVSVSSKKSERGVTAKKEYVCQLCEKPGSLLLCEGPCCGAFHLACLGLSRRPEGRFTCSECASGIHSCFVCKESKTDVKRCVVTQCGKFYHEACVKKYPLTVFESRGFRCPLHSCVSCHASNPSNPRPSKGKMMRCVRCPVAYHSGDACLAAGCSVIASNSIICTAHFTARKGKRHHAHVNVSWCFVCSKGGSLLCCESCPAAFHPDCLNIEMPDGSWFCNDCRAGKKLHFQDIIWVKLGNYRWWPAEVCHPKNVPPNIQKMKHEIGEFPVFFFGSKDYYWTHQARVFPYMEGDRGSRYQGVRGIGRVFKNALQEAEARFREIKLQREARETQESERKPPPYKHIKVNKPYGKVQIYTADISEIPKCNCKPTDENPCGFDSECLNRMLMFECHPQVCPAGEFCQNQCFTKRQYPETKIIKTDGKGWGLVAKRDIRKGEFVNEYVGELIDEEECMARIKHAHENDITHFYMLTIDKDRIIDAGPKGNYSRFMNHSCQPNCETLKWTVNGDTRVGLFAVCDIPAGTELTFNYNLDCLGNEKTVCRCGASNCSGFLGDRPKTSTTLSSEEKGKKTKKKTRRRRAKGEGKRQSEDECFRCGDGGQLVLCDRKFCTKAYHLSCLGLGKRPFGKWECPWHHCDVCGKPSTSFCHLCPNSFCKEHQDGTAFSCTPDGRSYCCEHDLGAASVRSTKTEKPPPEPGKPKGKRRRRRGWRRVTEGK

Sequence of Luciferin 4-monooxygenase (P08659 whole entry): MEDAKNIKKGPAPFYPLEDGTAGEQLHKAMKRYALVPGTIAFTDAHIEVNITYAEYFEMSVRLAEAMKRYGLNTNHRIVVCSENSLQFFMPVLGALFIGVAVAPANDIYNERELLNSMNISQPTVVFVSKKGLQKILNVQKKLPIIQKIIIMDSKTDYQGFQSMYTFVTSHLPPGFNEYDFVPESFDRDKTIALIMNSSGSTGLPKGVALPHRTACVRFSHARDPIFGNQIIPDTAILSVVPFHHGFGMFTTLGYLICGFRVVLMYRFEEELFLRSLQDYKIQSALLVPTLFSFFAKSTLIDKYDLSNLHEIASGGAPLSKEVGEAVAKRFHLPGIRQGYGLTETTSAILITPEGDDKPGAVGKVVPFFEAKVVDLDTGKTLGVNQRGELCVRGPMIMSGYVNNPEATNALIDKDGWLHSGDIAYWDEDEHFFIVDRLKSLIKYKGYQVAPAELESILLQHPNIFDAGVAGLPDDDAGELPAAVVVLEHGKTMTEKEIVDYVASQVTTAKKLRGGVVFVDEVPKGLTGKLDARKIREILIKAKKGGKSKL

COc1ccccc1/C=C1\SC(=S)N(CCC(=O)Nc2cc(C)on2)C1=O
EC50 [1]: > 120 µM (not active) | EC50 [2]: 27.8 µM (active) | EC50 [3]: 30 µM (active) | IC50 [4]: > 80 µM (inactive)

Cc1ccc2c(c1)c(C)c(C)n2CC(O)Cn1nnc2ccccc21 (stereo not given)
EC50 (H4): 22.3 µM (active) | EC50 [5]: > 195 µM (not active) | IC50 (Protein skinhead-1): > 100 µM (inactive) | EC50 [6]: 63.4 µM (active) | EC50 [7]: 20.9 µM (active)

CCc1cc2c(CN3CCN(C)CC3)cc(=O)oc2cc1O
IC50 (Aminopeptidase N): 47.7 µM (active)

Cc1cc(C)nc(Sc2ccc([N+](=O)[O-])cc2[N+](=O)[O-])n1
EC50 (HEK293 [8]): > 20 µM (inactive) | IC50 (HEK293 [9]): > 20 µM (inactive) | IC50 (HEK293 [10]): 6.2 µM (active) | IC50 [4]: > 80 µM (inactive) | IC50 (HEK293 [11]): 14.3 µM (inactive)

Cc1c(CCC(=O)O)c(=O)oc2cc3occ(-c4ccccc4)c3cc12
IC50 (Aminopeptidase N): 26.7 µM (active)

O=C(COC(=O)c1cc(S(=O)(=O)Nc2ccccc2Cl)ccc1O)Nc1nc2ccccc2s1
IC50 (Aminopeptidase N): 44.4 µM (active)

Cc1ccc(C(=O)NC2CCN(CC(=O)Nc3cccc([N+](=O)[O-])c3)CC2)cc1
IC50 (Aminopeptidase N): 102 µM (active)

Cc1cccc(-n2nc3c(c2NC(=O)C2CC2)CS(=O)(=O)C3)c1C
EC50 (H4): > 120 µM (not active) | IC50 (Protein skinhead-1): > 100 µM (inactive) | EC50 [6]: > 120 µM (not active) | EC50 [7]: > 120 µM (not active)

CCN1CCN(Cc2ccc(NC(=O)c3ccc(C)c(NC(=O)c4ccno4)c3)cc2C(F)(F)F)CC1
EC50 (HEK293 [8]): 7.63 µM (active) | IC50 (HEK293 [9]): > 20 µM (inactive) | AC50 (HEK293 [12]): 0.0692 µM (active) | IC50 (HEK293 [10]): > 20 µM (inactive) | IC50 (HEK293 [11]): 11.9 µM (inactive)

CCCCN1C(=O)NC(=O)/C(=C(/C)NNC(=O)Nc2ccccc2)C1=O
EC50 (H4): > 120 µM (not active) | EC50 [6]: 14.3 µM (active) | EC50 [7]: > 120 µM (not active)

COc1ccc(-c2ccc(C(C)=O)cc2)cc1[C@H]1[C@H]2C=CC[C@@H](C)[C@@H]2C(=O)N1Cc1ccccc1
EC50 [13]: 1.15 µM (active) | EC50 [14]: 18.9 µM (active) | IC50 [4]: > 80 µM (inactive)

CCOc1ccc(-c2cc(CCCC(=O)NCCCOC)no2)cc1
EC50 [3]: 0.841 µM (active) | EC50 (HT-1080): > 50 µM (not active) | EC50 [15]: > 100 µM (not active) | IC50 [4]: > 80 µM (inactive)

CO/C(O)=C1\CSC\C1=N\c1ccccc1NC(=O)c1ccccc1C(=O)O
EC50 (H4): 119 µM (active) | EC50 [6]: > 120 µM (not active) | EC50 [7]: > 120 µM (not active)

O=C(CCCO)N/N=C/c1cc(Br)ccc1O
IC50 (Aminopeptidase N): 21.7 µM (active)

CCCCN(CC)CCNC(=O)c1cc2c(-c3ccccc3F)nn(C)c2s1
AC50 [16]: > 20 µM (inactive) | EC50 (H4): > 120 µM (not active) | EC50 [6]: > 120 µM (not active) | EC50 [7]: 8.55 µM (active)
